# Source: patent US3958011A, “Compositions of tri-n-propylacetic acid and salts thereof and treatment of neurological disorders with such compositions” (priority 1972, dated 1976)
# Legend:
# rats = assay: Anoxic seizure induced by gallamine triiodoethylate (antianoxic properties); assay type: in vivo, rats (OFA); conditions: 2 millimols/kg
# From the text: The injection of a sufficient dose of a synthetic curariform substance such as gallamine triiodoethylate provokes in the rat paralysis of the diaphragm. The animal then dies by asphyxia.
# Male rats of the OFA strain and weighing about 250 g. were first anesthetized with ether in order to enable tracheotomy to be performed and cortical electrodes to be inserted. Each rat was then maintained under conditions of artificial respiration by means of an appropriate apparatus and a paralysing dose of gallamine triiodoethylate was administered by intraperitoneal route to eliminate spontaneous breathing. The electrocorticogram, the electrocardiogram and the rectal temperature were registered. After a period of 30 minutes during which stabilization of the registrations was obtained the animal was treated with 2 millimols/kg of an oily solution of tri-n-propylacetic acid or an aqueous solution of one of its alkali metal salts. The artificial respiratory apparatus was stopped 5 minutes after treatment and note was taken of the cardiac frequency every 10 seconds as well as of the period of time between the stopping of the apparatus and the appearance of the flat tracing on the electrocorticogram. This period of time represents the period of survival of the animal. The value of the cardiac frequency corresponding to moment of appearance of the flat tracing was calculated by extrapolation.
# The same test was performed on control animals but without administration of a compound of the invention.
# mouse = assay: Acute toxicity (LD50), technique of Karber and Behrens; conditions: intraperitoneal LD50, in words
# Description: The LD50 was determined on the mouse by intraperitonel route using the technique of KARBER and BEHRENS.
# mice [1] = assay: Pentylenetetrazol-induced seizure (anticonvulsant action); assay type: in vivo, mice (OF 1); conditions: Mus musculus, ip, i.p., 125 mg/kg pentylenetetrazol i.p.
# Description: The purpose of this test which is carried out on mice is to determine whether the compounds of the invention, when given preventively by intraperitoneal route, are capable at certain doses of protecting some of the animals against the epileptic seizure produced by an adequate and predetermined dose of pentylenetetrazol which would be 100% fatal in the absence of the compound. The test was carried out on batches of 10 male OF 1 mice weighing about 25 g.
# mice [2] = assay: Traction test (myorelaxant properties); assay type: in vivo, mice (OF 1); conditions: for Number of animals which have lost the traction reflex: groups of 10; for ED50: Mus musculus, ip, read-out: ED50, loss of traction reflex
# Description: This test enables sense of balance as well as muscular tonus and strength to be evaulated.
# The test is carried out on groups of 10 male mice of the OF 1 strain weighing about 25 g. It consists of suspending the mice by the front paws to a horizontally stretched wire. Note is first taken of the time required by a group of control animals to effect recovery i.e. to place at least one of their back paws on the wire.
# mice [3] = assay: Hole-board test (tranquillizing properties); assay type: in vivo, mice (OF 1); conditions: for Total number of holes explored: batch of 10
# Description: This test enables a quantitative evaluation to be made of the exploring capabilities of mice in relation to their curiosity. The material comprises a board 40 cm × 40 cm and 1.7 cm thick in which 16 holes, 3 cm in diameter, have been cut. The board is placed upon four legs sufficiently high (1.5 m) for the holes to appear bottomless to the animals. The experiment is carried out in as great a silence as possible.
# The test was performed on batches of 10 male OF 1 mice weighing about 23 g. The animals of each batch were given an intraperitoneal dose of the compound to be tested so that each batch received a higher dose than the preceding batch. […] Thirty minutes after administration, each batch was placed in the middle of the board and the total number of holes explored by each batch was noted every minute for 5 minutes.
# mice [4] = assay: Evasion test (tranquillizing properties); assay type: in vivo; conditions: for Total number of exits per batch: batch of 28 mice; for Average time before first exit: controls 14
# Description: This test enables the exploring capacities of mice to be studied. A parallelepipedic lidless plywood box is used which contains an inclined plane, also of plywood, covered with a fine mesh. A horizontal datum line is marked on the inclined plane 2 cm below the point at which the plane bears on the box edge. The whole device is placed in an artificially lit room away from all shrill noise. Any crossing, in an upward direction, by a mouse of the datum line is termed an "exit".
# The test was carried out on batches of 28 mice weighing about 22 g. The animals of each batch received an intraperitoneal dose of the compound to be studied so that each batch received a higher dose than the preceding batch.
# Thirty minutes after administration of the compound, the animals were placed in the box by batches and kept at the bottom for 10 seconds by a movable board. The average length or time after which the first exit occurred was noted as well as the total number of exits per batch every minute for 5 minutes. The same details were also recorded for a control batch which had not received the compound. The following results were obtained with the preferred compound of the invention namely sodium tri-n-propylacetate: […]
# mice [5] = assay: Maximum electroshock seizure (anticonvulsant action); assay type: in vivo, mice (OF 1)
# Description: This seizure is characterized in the mouse by extension of the back paws for 5 to 10 seconds. The extension is similar to that observed during the tonicoclonic seizures provoked by chemical convulsants such as pentylenetetrazol or strychnine.
# The test was carried out on batches of 10 mice of the OF 1 strain weighing about 22 g. […] Fifteen minutes later, each animal received an electric shock of twice threshold intensity (about 60 volts).
# This latter value is indicated by the symbol HD50 or hypnotic dose 50 and the efficacy index by the fraction: [formula]
smiles,measurement,setting,value
"CCCC(CCC)(CCC)C(=O)[O-].[Na+] [Sodium tri-n-propylacetate, sodium tri-n-propylacetate]",Increase of period of survival versus controls,rats,19%
same,Period of survival,rats; controls 74.3 ± 2.3,87.9 ± 3.7 s
same,Cardiac frequency when the flat tracing appears,"rats; controls 150, calculated by extrapolation",109
same,Acute toxicity compared with diazepam,mouse,much less toxic than diazepam
same,ED50,"mice [1]; 0.125 h, 7 min. 30 sec after administration",78 mg/kg
same,ED50,"mice [1]; 0.25 h, 15 min. after administration",66 mg/kg
same,ED50,"mice [1]; 0.5 h, 30 min. after administration",110 mg/kg
same,Number of animals which have lost the traction reflex,"mice [2]; 20 mg/kg i.p., 15 min.",1
same,Number of animals which have lost the traction reflex,"mice [2]; 20 mg/kg i.p., 30 min.",2
same,Number of animals which have lost the traction reflex,"mice [2]; 20 mg/kg i.p., 45 min.",0
same,Number of animals which have lost the traction reflex,"mice [2]; 50 mg/kg i.p., 15 min.",0
same,Number of animals which have lost the traction reflex,"mice [2]; 50 mg/kg i.p., 30 min.",1
same,Number of animals which have lost the traction reflex,"mice [2]; 50 mg/kg i.p., 45 min.",2
same,Number of animals which have lost the traction reflex,"mice [2]; 75 mg/kg i.p., 15 min.",3
same,Number of animals which have lost the traction reflex,"mice [2]; 75 mg/kg i.p., 30 min.",0
same,Number of animals which have lost the traction reflex,"mice [2]; 75 mg/kg i.p., 45 min.",1
same,Number of animals which have lost the traction reflex,"mice [2]; 100 mg/kg i.p., 15 min.",8
same,Number of animals which have lost the traction reflex,"mice [2]; 100 mg/kg i.p., 30 min.",1
same,Number of animals which have lost the traction reflex,"mice [2]; 100 mg/kg i.p., 45 min.",0
same,Number of animals which have lost the traction reflex,"mice [2]; 150 mg/kg i.p., 15 min.",10
same,Number of animals which have lost the traction reflex,"mice [2]; 150 mg/kg i.p., 30 min.",10
same,Number of animals which have lost the traction reflex,"mice [2]; 150 mg/kg i.p., 45 min.",9
same,ED50,mice [2]; 0.25 h,80 mg/kg
same,ED50,mice [2]; 0.5 h,110 mg/kg
same,ED50,mice [2]; 0.75 h,130 mg/kg
same,Time of maximum myorelaxant activity after administration,mice [2]; intraperitoneal,15 min
same,Activity index: NTD50/ED50,"mice [2]; rota rod NTD50 / traction ED50, 30 minutes after administration",1.1
same,Total number of holes explored,"mice [3]; 50 mg/kg i.p., 1 min.",15
same,Total number of holes explored,"mice [3]; 50 mg/kg i.p., 2 min.",13
same,Total number of holes explored,"mice [3]; 50 mg/kg i.p., 3 min.",14
same,Total number of holes explored,"mice [3]; 50 mg/kg i.p., 4 min.",19
same,Total number of holes explored,"mice [3]; 50 mg/kg i.p., 5 min.",17
same,Total number of holes explored,"mice [3]; 75 mg/kg i.p., 1 min.",2
same,Total number of holes explored,"mice [3]; 75 mg/kg i.p., 2 min.",6
same,Total number of holes explored,"mice [3]; 75 mg/kg i.p., 3 min.",3
same,Total number of holes explored,"mice [3]; 75 mg/kg i.p., 4 min.",1
same,Total number of holes explored,"mice [3]; 75 mg/kg i.p., 5 min.",7
same,Effect on the animals' curiosity,"mice [3]; hole-board test, in words",tends to reduce the animals' curiosity
same,Total number of exits per batch,"mice [4]; 50 mg/kg i.p., 1 min.",54
same,Total number of exits per batch,"mice [4]; 50 mg/kg i.p., 2 min.",44
same,Total number of exits per batch,"mice [4]; 50 mg/kg i.p., 3 min.",43
same,Total number of exits per batch,"mice [4]; 50 mg/kg i.p., 4 min.",41
same,Total number of exits per batch,"mice [4]; 50 mg/kg i.p., 5 min.",28
same,Average time before first exit,mice [4]; 50 mg/kg i.p.,25 s
same,Total number of exits per batch,"mice [4]; 75 mg/kg i.p., 1 min.",44
same,Total number of exits per batch,"mice [4]; 75 mg/kg i.p., 2 min.",37
same,Total number of exits per batch,"mice [4]; 75 mg/kg i.p., 3 min.",31
same,Total number of exits per batch,"mice [4]; 75 mg/kg i.p., 4 min.",34
same,Total number of exits per batch,"mice [4]; 75 mg/kg i.p., 5 min.",28
same,Average time before first exit,mice [4]; 75 mg/kg i.p.,21 s
same,ED50,"mice [5]; Mus musculus, ip, 0.25 h, i.p., 15 min after administration, protection of 50% against tonic seizures",130 mg/kg
same,Efficacy index (HD50 compared with ED50),mice [5]; electroshock ED50 versus hypnotic dose 50,1.0
